Source: the NIST ThermoML archive (doi:10.1021/je300886k)
Numbers after ± are expanded uncertainties.

Tests used:
[1] = Liquid; for mass density: 298.15 K, 101.33 kPa, Vibrating tube method; for vapor or sublimation pressure: Ebulliometric method (Recirculating still)
[2] = refractive index (Na D-line) (dimensionless); settings: 298.15 K; 101.33 kPa; Liquid; Standard Abbe refractometry
[3] = mn = molality of the nth substance listed, in mol/kg; settings: 298.15 K, 101 kPa, Liquid, Vibrating tube method

CCO [ethanol]
Settings | mass density [kg/m3] | refractive index
[1] | 785.22 ± 0.22 | –
[2] | – | 1.3599 ± 0.0004

Settings | vapor or sublimation pressure [kPa]
[1], 352.75 K | 101 ± 1

CCOC(C)=O [ethyl acetate]
Settings | mass density [kg/m3] | refractive index
[1] | 897.72 ± 0.1 | –
[2] | – | 1.3698 ± 0.0004

Settings | vapor or sublimation pressure [kPa]
[1], 350.45 K | 101 ± 1

[Cl-].[Cl-].[Mg+2] [magnesium chloride] + CCO
[3]
Settings | mass density [kg/m3]
m1 = 0.0105 | 782.98 ± 0.13
m1 = 0.0211 | 783.73 ± 0.13
m1 = 0.0317 | 784.5 ± 0.13
m1 = 0.0423 | 785.26 ± 0.13
m1 = 0.053 | 786.01 ± 0.13
m1 = 0.0583 | 786.38 ± 0.13
m1 = 0.0636 | 786.75 ± 0.13
m1 = 0.0689 | 787.12 ± 0.13
m1 = 0.0743 | 787.49 ± 0.13
m1 = 0.0796 | 787.86 ± 0.13
m1 = 0.085 | 788.23 ± 0.13
m1 = 0.0903 | 788.57 ± 0.13
m1 = 0.0957 | 788.93 ± 0.13

O=[N+]([O-])[O-].O=[N+]([O-])[O-].[Mg+2] [magnesium nitrate] + CCO
[3]
Settings | mass density [kg/m3]
m1 = 0.0067 | 782.9 ± 0.13
m1 = 0.0135 | 783.59 ± 0.13
m1 = 0.0203 | 784.17 ± 0.13
m1 = 0.0271 | 784.79 ± 0.13
m1 = 0.0339 | 785.43 ± 0.13
m1 = 0.0373 | 785.75 ± 0.13
m1 = 0.0407 | 786.06 ± 0.13
m1 = 0.0441 | 786.43 ± 0.13
m1 = 0.0475 | 786.74 ± 0.13
m1 = 0.051 | 787.05 ± 0.13
m1 = 0.0544 | 787.34 ± 0.13
m1 = 0.0578 | 787.64 ± 0.13
m1 = 0.0612 | 787.92 ± 0.13
m1 = 0.0647 | 788.22 ± 0.13
m1 = 0.0681 | 788.49 ± 0.13

O=[N+]([O-])[O-].O=[N+]([O-])[O-].[Zn+2] [nitric acid, zinc salt] + CCO
[3]
Settings | mass density [kg/m3]
m1 = 0.0053 | 785.9 ± 0.13
m1 = 0.0106 | 786.55 ± 0.13
m1 = 0.0159 | 787.2 ± 0.13
m1 = 0.0212 | 787.84 ± 0.13
m1 = 0.0265 | 788.49 ± 0.13
m1 = 0.0292 | 788.78 ± 0.13
m1 = 0.0319 | 789.09 ± 0.13
m1 = 0.0346 | 789.38 ± 0.13
m1 = 0.0372 | 789.7 ± 0.13
m1 = 0.0399 | 789.99 ± 0.13
m1 = 0.0426 | 790.29 ± 0.13
m1 = 0.0453 | 790.6 ± 0.13
m1 = 0.048 | 790.89 ± 0.13
m1 = 0.0507 | 791.19 ± 0.13
m1 = 0.0533 | 791.49 ± 0.13
m1 = 0.0804 | 794.55 ± 0.13
